IC50 data for 18 molecules are collected here from ChEMBL document CHEMBL4808207, “Macrocyclic Peptides as a Novel Class of NNMT Inhibitors: A SAR Study Aimed at Inhibitory Activity in the Cell” (ACS Med Chem Lett, 2021).

Numbered stars: 1 amine (or outer) side, 2 acyl side, 3 side chain; on linkers, the order of the positions; unused ones are H or OH. Bridge positions count the residues as written; N and C are the ends. Square brackets hold non-standard residues; d marks the D form. Peptide text beside a SMILES is read from it. Pro(trans-4-Ph) = O=C(O)[C@@H]1C[C@@H](c2ccccc2)CN1; Pro(cis-4-CF3) = O=C(O)[C@@H]1C[C@H](C(F)(F)F)CN1; X1 = O=C([C@@H]1C[C@@H](C(F)(F)F)CN1[*:1])[*:2]; Phe(4-CONH2) = NC(=O)c1ccc(C[C@H](N)C(=O)O)cc1; Bip = N[C@@H](Cc1ccc(-c2ccccc2)cc1)C(=O)O; Pro(4,4-F2) = O=C(O)[C@@H]1CC(F)(F)CN1; Lys(Me2) = CN(C)CCCC[C@H](N)C(=O)O; NMeR = CN[C@@H](CCCNC(=N)N)C(=O)O; NMeF = CN[C@@H](Cc1ccccc1)C(=O)O; tBuAla = CC(C)(C)C[C@H](N)C(=O)O; Tic = O=C(O)[C@@H]1Cc2ccccc2CN1; hLys = NCCCCC[C@H](N)C(=O)O; NMeC = CN[C@@H](CS)C(=O)O

This assay addresses T1, Nicotinamide N-methyltransferase (Mus musculus, UniProt O55239).
T1 sequence (O55239 whole entry): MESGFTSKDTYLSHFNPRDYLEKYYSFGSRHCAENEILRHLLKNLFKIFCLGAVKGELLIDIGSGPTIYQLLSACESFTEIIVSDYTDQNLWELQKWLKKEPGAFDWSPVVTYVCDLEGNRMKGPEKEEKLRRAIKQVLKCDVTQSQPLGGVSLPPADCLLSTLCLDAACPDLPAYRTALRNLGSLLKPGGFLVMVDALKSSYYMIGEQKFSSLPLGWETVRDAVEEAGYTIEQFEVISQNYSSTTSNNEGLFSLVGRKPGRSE
Description: Inhibition of mouse recombinant NNMT using nicotinamide and SAM as substrate assessed as reduction in 1-methyl-nicotinamide formation incubated for 22 to 24 hrs by RapidFire Mass spectroscopy.
As for `CC(C)C[C@@H]1NC(=O)[C@@H]2CC(F)(F)CN2C(=O)[C@H](Cc2ccccc2)NC(=O)CSC[C@@H](C(N)=O)NC(=O)[C@H](Cc2ccc(C(N)=O)cc2)NC(=O)[C@@H]2Cc3ccccc3CN2C(=O)[C@@H]2CCCN2C(=O)[C@H](CCCCN)NC1=O` ({CH2CO}-F[Pro(4,4-F2)]LKP[Tic][Phe(4-CONH2)]C-NH2; thioether N-8), the IC50 was found to be 0.018 µM.

Regarding `CC(C)C[C@@H]1NC(=O)[C@@H]2CCCN2C(=O)[C@H](Cc2ccccc2)N(C)C(=O)CSC[C@@H](C(N)=O)NC(=O)[C@H](Cc2ccc(C(N)=O)cc2)NC(=O)[C@@H]2Cc3ccccc3CN2C(=O)[C@@H]2CCCN2C(=O)[C@H](CCCCCN)NC1=O` ({CH2CO}-[NMeF]PL[hLys]P[Tic][Phe(4-CONH2)]C-NH2; thioether N-8), the IC50 came to 0.0013 µM.

For the molecule `CC(C)C[C@@H]1NC(=O)[C@@H]2CCCN2C(=O)[C@H](Cc2ccccc2)NC(=O)CSC[C@@H](C(N)=O)NC(=O)[C@H](Cc2ccc(C(N)=O)cc2)NC(=O)[C@@H]2Cc3ccccc3CN2C(=O)[C@@H]2C[C@@H](C(F)(F)F)CN2C(=O)[C@H](CCCCN)NC1=O` ({CH2CO}-FPLK[X1][Tic][Phe(4-CONH2)]C-NH2; thioether N-8), the IC50 turned out to be 0.263 µM.

In the case of `CC(C)C[C@@H]1NC(=O)[C@@H]2CCCN2C(=O)[C@H](Cc2ccccc2)N(C)C(=O)CSC[C@@H](C(N)=O)NC(=O)[C@H](Cc2ccc(C(N)=O)cc2)NC(=O)[C@@H]2Cc3ccccc3CN2C(=O)[C@@H]2CCCN2C(=O)[C@H](CCCNC(=N)N)NC1=O` ({CH2CO}-[NMeF]PLRP[Tic][Phe(4-CONH2)]C-NH2; thioether N-8), the 50% inhibitory concentration (IC50) amounted to 0.096 µM.

As to `CC(C)C[C@@H]1NC(=O)[C@@H]2C[C@@H](c3ccccc3)CN2C(=O)[C@H](Cc2ccccc2)NC(=O)CSC[C@@H](C(N)=O)NC(=O)[C@H](Cc2ccc(C(N)=O)cc2)NC(=O)[C@@H]2Cc3ccccc3CN2C(=O)[C@@H]2CCCN2C(=O)[C@H](CCCCN)NC1=O` ({CH2CO}-F[Pro(trans-4-Ph)]LKP[Tic][Phe(4-CONH2)]C-NH2; thioether N-8), the concentration for half-maximal inhibition (IC50) was 0.0012 µM.

As to `CC(C)C[C@@H]1NC(=O)[C@@H]2CCCN2C(=O)[C@H](Cc2ccccc2)NC(=O)CSC[C@@H](C(N)=O)NC(=O)[C@H](Cc2ccc(C(N)=O)cc2)NC(=O)[C@@H]2Cc3ccccc3CN2C(=O)[C@@H]2C[C@H](C(F)(F)F)CN2C(=O)[C@H](CCCCN)NC1=O` ({CH2CO}-FPLK[Pro(cis-4-CF3)][Tic][Phe(4-CONH2)]C-NH2; thioether N-8), the IC50 turned out to be 1.34 µM.

Consider `CN1C(=O)CSC[C@@H](C(N)=O)NC(=O)[C@H](Cc2ccc(C(N)=O)cc2)NC(=O)[C@@H]2Cc3ccccc3CN2C(=O)[C@@H]2CCCN2C(=O)[C@H](CCCNC(=N)N)NC(=O)[C@H](Cc2ccccc2)NC(=O)[C@@H]2CCCN2C(=O)[C@@H]1Cc1ccccc1` ({CH2CO}-[NMeF]PFRP[Tic][Phe(4-CONH2)]C-NH2; thioether N-8), for which the IC50 is 0.253 µM.

For `CC(C)C[C@@H]1NC(=O)[C@@H]2CCCN2C(=O)[C@H](Cc2ccccc2)NC(=O)CSC[C@@H](C(N)=O)NC(=O)[C@H](Cc2ccc(-c3ccccc3)cc2)NC(=O)[C@@H]2Cc3ccccc3CN2C(=O)[C@@H]2CCCN2C(=O)[C@H](CCCCN)NC1=O` ({CH2CO}-FPLKP[Tic][Bip]C-NH2; thioether N-8), the half-inhibitory concentration (IC50) was determined as 0.073 µM.

For `CN1C(=O)[C@H](Cc2ccc(O)cc2)NC(=O)[C@@H]2CCCN2C(=O)[C@H](Cc2ccccc2)NC(=O)CSC[C@@H](C(N)=O)NC(=O)[C@H](Cc2ccc(C(N)=O)cc2)NC(=O)[C@@H]2Cc3ccccc3CN2C(=O)[C@@H]2CCCN2C(=O)[C@@H]1CCCNC(=N)N` ({CH2CO}-FPY[NMeR]P[Tic][Phe(4-CONH2)]C-NH2; thioether N-8), the IC50 stood at 0.277 µM.

In the case of `CN1C(=O)CSC[C@@H](C(N)=O)NC(=O)[C@H](Cc2ccc(C(N)=O)cc2)NC(=O)[C@@H]2Cc3ccccc3CN2C(=O)[C@@H]2CCCN2C(=O)[C@H](CCCNC(=N)N)NC(=O)[C@H](Cc2ccc(O)cc2)NC(=O)[C@@H]2CCCN2C(=O)[C@@H]1Cc1ccccc1` ({CH2CO}-[NMeF]PYRP[Tic][Phe(4-CONH2)]C-NH2; thioether N-8), the IC50 came out at 0.217 µM.

Take `CN1C(=O)CSC[C@@H](C(N)=O)NC(=O)[C@H](Cc2ccc(C(N)=O)cc2)NC(=O)[C@@H]2Cc3ccccc3CN2C(=O)[C@@H]2CCCN2C(=O)[C@H](CCCCN)NC(=O)[C@H](CC(C)(C)C)NC(=O)[C@@H]2CCCN2C(=O)[C@@H]1Cc1ccccc1` ({CH2CO}-[NMeF]P[tBuAla]KP[Tic][Phe(4-CONH2)]C-NH2; thioether N-8): the 50% inhibitory concentration (IC50) turned out to be 0.023 µM.

Regarding `CC(C)C[C@@H]1NC(=O)[C@@H]2C[C@@H](C(F)(F)F)CN2C(=O)[C@H](Cc2ccccc2)NC(=O)CSC[C@@H](C(N)=O)NC(=O)[C@H](Cc2ccc(C(N)=O)cc2)NC(=O)[C@@H]2Cc3ccccc3CN2C(=O)[C@@H]2CCCN2C(=O)[C@H](CCCCN)NC1=O` ({CH2CO}-F[X1]LKP[Tic][Phe(4-CONH2)]C-NH2; thioether N-8), the concentration for half-maximal inhibition (IC50) amounted to 0.018 µM.

`CC(C)C[C@@H]1NC(=O)[C@@H]2C[C@H](C(F)(F)F)CN2C(=O)[C@H](Cc2ccccc2)NC(=O)CSC[C@@H](C(N)=O)NC(=O)[C@H](Cc2ccc(C(N)=O)cc2)NC(=O)[C@@H]2Cc3ccccc3CN2C(=O)[C@@H]2CCCN2C(=O)[C@H](CCCCN)NC1=O` ({CH2CO}-F[Pro(cis-4-CF3)]LKP[Tic][Phe(4-CONH2)]C-NH2; thioether N-8): the 50% inhibitory concentration (IC50) was found to be 0.214 µM.

For `CN1C(=O)[C@H](Cc2ccc(C(N)=O)cc2)NC(=O)[C@@H]2Cc3ccccc3CN2C(=O)[C@@H]2CCCN2C(=O)[C@H](CCCNC(=N)N)NC(=O)[C@H](Cc2ccc(O)cc2)NC(=O)[C@@H]2CCCN2C(=O)[C@H](Cc2ccccc2)NC(=O)CSC[C@H]1C(N)=O` ({CH2CO}-FPYRP[Tic][Phe(4-CONH2)][NMeC]-NH2; thioether N-8), the IC50 was 8.03 µM.

In the case of `CC(C)C[C@@H]1NC(=O)[C@@H]2CCCN2C(=O)[C@H](Cc2ccccc2)NC(=O)CSC[C@@H](C(N)=O)NC(=O)[C@H](Cc2ccc(C(N)=O)cc2)NC(=O)[C@@H]2Cc3ccccc3CN2C(=O)[C@@H]2CCCN2C(=O)[C@H](CCCCN)NC1=O` ({CH2CO}-FPLKP[Tic][Phe(4-CONH2)]C-NH2; thioether N-8), the IC50 came out at 0.04 µM.

For the molecule `CN(C)CCCC[C@@H]1NC(=O)[C@H](Cc2ccc(O)cc2)NC(=O)[C@@H]2CCCN2C(=O)[C@H](Cc2ccccc2)N(C)C(=O)CSC[C@@H](C(N)=O)NC(=O)[C@H](Cc2ccc(C(N)=O)cc2)NC(=O)[C@@H]2Cc3ccccc3CN2C(=O)[C@@H]2CCCN2C1=O` ({CH2CO}-[NMeF]PY[Lys(Me2)]P[Tic][Phe(4-CONH2)]C-NH2; thioether N-8), the IC50 came to 1.35 µM.

`CC(C)C[C@@H]1NC(=O)[C@@H]2CCCN2C(=O)[C@H](Cc2ccccc2)NC(=O)CSC[C@@H](C(N)=O)NC(=O)[C@H](Cc2ccc(C(N)=O)cc2)NC(=O)[C@@H]2Cc3ccccc3CN2C(=O)[C@@H]2CC(F)(F)CN2C(=O)[C@H](CCCCN)NC1=O` ({CH2CO}-FPLK[Pro(4,4-F2)][Tic][Phe(4-CONH2)]C-NH2; thioether N-8): the half-maximal inhibitory concentration (IC50) turned out to be 0.013 µM.

As for `CN1C(=O)CSC[C@@H](C(N)=O)NC(=O)[C@H](Cc2ccc(C(N)=O)cc2)NC(=O)[C@@H]2Cc3ccccc3CN2C(=O)[C@@H]2CCCN2C(=O)[C@H](CCCCN)NC(=O)[C@H](Cc2ccc(O)cc2)NC(=O)[C@@H]2CCCN2C(=O)[C@@H]1Cc1ccccc1` ({CH2CO}-[NMeF]PYKP[Tic][Phe(4-CONH2)]C-NH2; thioether N-8), the half-inhibitory concentration (IC50) worked out at 0.188 µM.
